Laboratory results published in patent US20200405715A1, “COMPOSITIONS AND METHODS FOR TREATING CANCER AND INFLAMMATORY DISEASES” (University of Pittsburgh - Of the Commonwealth System of …, priority 2016, published 2020).

Tests used:
[1] = system: HepG2 cells; assay: HepG2 cell proliferation (CellTiter-Glo Luminescent Cell Viability Assay); type: cell-based; conditions: 96 h
Experimental: Cell proliferation were then measured by CellTiter-Glo® Luminescent Cell Viability Assay (n=3).
4KHepG2 cells were seeded in 96 well plates for overnight. Compounds listed in Table 3 were then added to each well at various concentrations. 96 h later, cell proliferation was measured by ATP production using a CellTiter-Glo® Luminescent Cell Viability Assay (Promega).
3-(pentylamino)-5-phenylcyclohex-2-en-1-one was modified by adding a different sidechain. These novel compounds were tested further in an in vitro proliferation assay using ATPLite Cell Proliferation kit. […] Others lost activity in reducing Cullin Neddylation and inhibiting cell proliferation (FIG. 3C-D).

[2] = system: SCF substrates p27, NRF2 and CDT1; assay: SCF substrates, protein immunoblotting in HepG2 cells; type: cell-based; conditions: 10 μM, various times (FIG. 6A)
[3] = system: HepG2 cells; assay: Cell cycle analysis by BrdU uptake and 7-AAD staining; type: cell-based
Experimental: (§1) HepG2 cells were treated with 3-(decylamino)-5-phenylcyclohex-2-en-1-one for 36 h with various concentrations. Cells were then analyzed by BrdU uptake and 7-AAD staining, G0, G1, S, G2/M phase cells were then quantitated and graphed. […] Confluent monolayers of HepG2 cells were injured and cellular migration into the wound was determined under vehicle or 3-(decylamino)-5-phenylcyclohex-2-en-1-one treated condition. 36 h later cells were then observed under white field microscopy and recovery of cells to wound heal was quantified and graphed (right).
(§2) HepG2 cells were treated with 3-(decylamino)-5-phenylcyclohex-2-en-1-one at 10 μM for various times. At each time point, cells were analyzed by BrdU uptake and 7-AAD staining, G0, G1, S, G2/M phase cells were then quantitated and graphed. […] Cells were then observed under white field microscopy.

[4] = system: HepG2 cells; assay: Wound-healing assay; type: cell-based; conditions: 36 h (FIG. 5C)
Experimental: as §1

[5] = system: HepG2 cells; assay: Cell morphology under white field microscopy; type: cell-based; conditions: 10 μM, time dependent (FIG. 6C)
Experimental: as §2

[6] = system: HepG2 cells; assay: Mitotic spindle immunostaining (α-tubulin, DAPI); type: cell-based; conditions: 1 uM, 24 h (FIG. 7B)
Experimental: Cells were then washed with PBS and fixed with 4% paraformaldehyde for 20 min. Cells were co-immunostained for either α-tubulin. Cells were counterstained with DAPI to visualize the nucleus.
The integrity of the centrosome and mitotic spindles after 3-(decylamino)-5-phenylcyclohex-2-en-1-one treatment was examined. HepG2 cells were stained with antibody to α-tubulin to visualize the mitotic spindle (FIG. 7A-B). […] The circular prophase configurations were observed (FIG. 7B, top panel). One classic phenotype of the circular chromosome configuration is circular figures arranged on monopolar spindles around large centrosomes. No spindles assembly in metaphase was observed (FIG. 7B, lower panel).

[7] = system: HepG2 tumor implants; assay: HepG2 tumor implants in nude mice, tumor growth; type: in vivo, athymic nude mice; conditions: compounds in drinking water (15 mg/kg/d), start at tumor size 0.1 cm^3 (FIG. 8)
Experimental: Mice were implanted with HepG2 cells (10^6 cells) through subcutaneous injection. 2 weeks later, once tumor size reaches ˜0.1 cm^3, mice were randomized and the treatment began by adding compounds to the drinking water ([…]). Tested compounds were: Vehicle, 3-(decylamino)-5-phenylcyclohex-2-en-1-one (BC1558), 3-(dibenzylamino)-5-phenylcyclohex-2-en-1-one (BC1634) or 3-((4-phenoxybenzyl)amino)-5-phenylcyclohex-2-en-1-one (BC1653). Tumor volume measurements over time were graphed (n=4-5 mice/group, *P<0.05 versus Vehicle).
As a complementary in vivo model, tumorogenicity was further assessed after implanting HepG2 cells along with 3-(decylamino)-5-phenylcyclohex-2-en-1-one, 3-(dibenzylamino)-5-phenylcyclohex-2-en-1-one, 3-((4-phenoxybenzyl)amino)-5-phenylcyclohex-2-en-1-one treatment in athymic nude mice. Mice were implanted with HepG2 cells through subcutaneous injection. Two weeks later, once tumor size reached 0.1 cm^3, the mice were randomized and the treatment began by adding compounds to the drinking water (15 mg/kg/d).

[8] = system: HepG2 tumor tissue; assay: PD/PK study, tumor tissue immunoblotting after single oral dose; type: in vivo, nude mice
Experimental: Nude mice were implanted with HepG2 cells (10^6 cells) through subcutaneous injection. Five weeks later, once tumor size reaches 0.3 cm^3, mice were randomized and given 1 dose of 3-(decylamino)-5-phenylcyclohex-2-en-1-one (15 mg/kg) by oral gavage. Mice were then euthanized, plasma and tumor tissue were isolated for analysis. Tumor tissue were grinded and assayed for protein immunoblotting (n=3-4).
A PD/PK study was also performed. Mice were implanted with HepG2 cells (10^6 cells) through subcutaneous injection. 5 weeks later, once tumor size reached 0.3 cm^3, mice were randomized and given 1 dose of 3-(decylamino)-5-phenylcyclohex-2-en-1-one (15 mg/kg) by oral gavage (FIG. 9A). […] NRF2 protein levels peaked 4 h after administration of BC1558 and started to decline by 8-24 h post-dose. The timing of CDT1 accumulation was compared to NRF2, peaking 4 h after 3-(decylamino)-5-phenylcyclohex-2-en-1-one administration.

[9] = system: DSS induced colonic inflammation; assay: DSS induced colitis model; type: in vivo, C57BL6 mice; conditions: DSS in water
Experimental: FIGS. 12A-12D show DCN1 inhibitors reduce DSS induced colonic inflammation, specifically the following experimental results C57BL6 mice were fed with water ad lib containing 3% dextran sulfate sodium (DSS) for six days. DCN1 inhibitors were administered into drinking water at 10 mg/kg/d, starting at day 1. […] The data represent n=4 mice/group, *P<0.05 versus CON.
Also tested were 3-(decylamino)-5-phenylcyclohex-2-en-1-one (BC1558), 3-(dibenzylamino)-5-phenylcyclohex-2-en-1-one (BC1634) and 3-((4-phenoxybenzyl)amino)-5-phenylcyclohex-2-en-1-one (BC1653) in a mouse colitis model to confirm its anti-inflammatory activity. Briefly, C57BL6 mice were fed with water containing 3.5% […] and colonic length was measured. DSS produced a significant decrease in colon length in mice, consistent with colonic inflammation (FIG. 12A-B). […] Colonic tissue cytokine levels were further analyzed.

[10] = single dose 15 mg/kg oral gavage, tumor tissue

Structure (SMILES): CCCCCCCCCCNC1=CC(=O)CC(c2ccccc2)C1 (centres unmarked) [BC1558, 3-(decylamino)-5-phenylcyclohex-2-en-1-one]
- inhibiting cell proliferation ([1]; various concentrations (FIG. 3D)): exhibited activity
- IC50 ([1]; Homo sapiens, ATP production, n=3, read-out: IC50Proliferation): < 1000 nM
- SCF substrates p27, NRF2 and CDT1 [2]: increased
- G0 and G2/M phases ([3]; 10 μM, at 16 h (FIG. 6B)): increased
- S phase ([3]; 10 μM, at 16 h (FIG. 6B)): effectively decreased
- G0 and G2/M phases ([3]; 36 h, dose dependent (FIG. 5B)): increased
- S phase ([3]; 36 h, dose dependent (FIG. 5B)): effectively decreased
- hepG2 cells migration [4]: showed inhibition
- cell morphology [5]: accumulation of rounded, apoptotic hepG2 cells
- integrity of the centrosome and mitotic spindles [6]: Abnormal cells with several representative mitotic abnormalities were also detected
- tumor size compared to the vehicle [7]: Significantly reduced tumor size
- phosphorylated CHK1 (Ser 317), DNA damage in the tumor ([8]; at 8 h after a single administration, 15 mg/kg oral gavage): increased levels
- steady state levels of NRF2 and CDT1 [8, 10]: time-dependent increase
- time at which NRF2 protein levels started to decline post-dose [8, 10]: 8 to 24 h
- time of maximal effect on NEDD8-cullin levels post-dose [8, 10]: 2 to 4 h
- time of peak CDT1 accumulation after administration [8, 10]: 4 h
- time of peak NRF2 protein levels after administration [8, 10]: 4 h
- time to decrease of NEDD8-cullin levels after administration ([8]; single dose 15 mg/kg oral gavage, tumor tissue (FIG. 9B)): ≤ 1 h
- colon length compared vehicle ([9]; compounds in drinking water at 10 mg/kg/d (FIG. 12A-B)): significant increase
- IL1β and IL6 levels in colonic tissue compared to vehicle ([9]; compounds in drinking water at 10 mg/kg/d (FIG. 12C-D)): large reduction
